Assay results from PubChem BioAssay AID248 (DTP/NCI, 2004).
Toxic doses and inconclusive results are not listed. Cut-off read from the data, not from the text of the source: active = T/C of 150% or more; inactive = T/C below 125%.

Test system: L1210 leukemia ip in BDF1 mice, survival T/C
Assay: NCI In Vivo Anticancer Drug Screen. Data for tumor model L1210 Leukemia (intraperitoneal) in B6D2F1 (BDF1) mice
Conditions: endpoint: mean survival time, higher = longer survival
Summary of the method: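 Value reflects the ratio of survival in compound-treated mice to survival in vehicle-treated controls, with both groups carrying the same transplanted tumor.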

[1] = dose: 100.0 mg/kg/injection, schedule: Q04DX003 (ip), vehicle: saline
[2] = dose: 200.0 mg/kg/injection, schedule: Q04DX003 (ip), vehicle: saline
[3] = dose: 400.0 mg/kg/injection, schedule: Q04DX003 (ip), vehicle: saline
[4] = dose: 50.0 mg/kg/injection, schedule: Q01DX001 (ip), vehicle: saline
[5] = dose: 100.0 mg/kg/injection, schedule: Q01DX001 (ip), vehicle: saline
[6] = dose: 200.0 mg/kg/injection, schedule: Q01DX001 (ip), vehicle: saline
[7] = dose: 100.0 mg/kg/injection, schedule: Q01DX009 (ip), vehicle: Klucel (hydroxypropylcellulose) (HPC)
[8] = dose: 200.0 mg/kg/injection, schedule: Q01DX009 (ip), vehicle: Klucel (hydroxypropylcellulose) (HPC)
[9] = dose: 100.0 mg/kg/injection, schedule: Q01DX001 (ip), vehicle: carboxymethylcellulose (CMC)
[10] = dose: 200.0 mg/kg/injection, schedule: Q01DX001 (ip), vehicle: carboxymethylcellulose (CMC)
[11] = dose: 400.0 mg/kg/injection, schedule: Q01DX001 (ip), vehicle: carboxymethylcellulose (CMC)

Measured: T/C

O=C(O)c1ccccc1N=Cc1ccccc1Cl
inactive: dose: 100.0 mg/kg/injection, schedule: Q04DX002 (ip), vehicle: saline with Tween-80 101 % of control | dose: 200.0 mg/kg/injection, schedule: Q04DX002 (ip), vehicle: saline with Tween-80 108 % of control | dose: 400.0 mg/kg/injection, schedule: Q04DX002 (ip), vehicle: saline with Tween-80 93 % of control

NCC(=O)NC(CO)C(=O)O (configuration not stated)
inactive: dose: 100.0 mg/kg/injection, schedule: Q01DX009 (ip), vehicle: saline 106 % of control | [1] 110 % of control | dose: 200.0 mg/kg/injection, schedule: Q01DX009 (ip), vehicle: saline 101 % of control | [2] 103 % of control | dose: 400.0 mg/kg/injection, schedule: Q01DX009 (ip), vehicle: saline 95 % of control | [3] 100 % of control

C[N+](C)(C)Cc1ccccc1C[N+](C)(C)C
inactive: [4] 113 % of control | [5] 101 % of control | [6] 97 % of control

COc1ccc(/C=C2N=C(/C=C/c3ccccc3)OC\2=O)cc1OC
inactive: dose: 100.0 mg/kg/injection, schedule: Q04DX002 (ip), vehicle: gum acacia 88 % of control | dose: 200.0 mg/kg/injection, schedule: Q04DX002 (ip), vehicle: gum acacia 95 % of control | dose: 400.0 mg/kg/injection, schedule: Q04DX002 (ip), vehicle: gum acacia 88 % of control

CC(C)c1ccc(/C(=N\NC(N)=S)C2CC2)cc1
inactive: dose: 1.0 mg/kg/injection, schedule: Q01DX Z (ip), vehicle: methylcellulose (MC) 93 % of control | dose: 2.0 mg/kg/injection, schedule: Q01DX Z (ip), vehicle: methylcellulose (MC) 91 % of control | dose: 5.0 mg/kg/injection, schedule: Q01DX Z (ip), vehicle: methylcellulose (MC) 94 % of control | dose: 10.0 mg/kg/injection, schedule: Q01DX Z (ip), vehicle: methylcellulose (MC) 102 % of control

Cc1ccc(C)c(NC(=O)Nc2ccccc2F)c1
inactive: dose: 100.0 mg/kg/injection, schedule: Q01DX009 (ip), vehicle: carboxymethylcellulose (CMC) 89 % of control | dose: 200.0 mg/kg/injection, schedule: Q01DX009 (ip), vehicle: carboxymethylcellulose (CMC) 86 % of control | dose: 400.0 mg/kg/injection, schedule: Q01DX009 (ip), vehicle: carboxymethylcellulose (CMC) 87 % of control

CCN(CC)CCCC(C)Nc1ccccn1 (configuration not stated)
inactive: dose: 75.0 mg/kg/injection, schedule: Q01DX001 (ip), vehicle: carboxymethylcellulose (CMC) 102 % of control | dose: 150.0 mg/kg/injection, schedule: Q01DX001 (ip), vehicle: carboxymethylcellulose (CMC) 100 % of control

CC12CCCCC1(OC(=O)c1ccc([N+](=O)[O-])cc1)CCCC2 (configuration not stated)
inactive: dose: 75.0 mg/kg/injection, schedule: Q04DX002 (ip), vehicle: saline with Tween-80 100 % of control | dose: 150.0 mg/kg/injection, schedule: Q04DX002 (ip), vehicle: saline with Tween-80 104 % of control | dose: 300.0 mg/kg/injection, schedule: Q04DX002 (ip), vehicle: saline with Tween-80 88 % of control

CN(Cc1ccc([N+](=O)[O-])cc1)C(=O)Nc1ccc(S(=O)(=O)F)cc1
inactive: [1] 98 % of control | [2] 101 % of control | [3] 104 % of control

Cc1ncc(N)c2c1OC(C)(C)OC2
inactive: [4] 91 % of control

CC(C)=CCc1c(N)nc(N)[nH]c1=O
inactive: dose: 100.0 mg/kg/injection, schedule: Q04DX002 (ip), vehicle: Klucel (hydroxypropylcellulose) (HPC) 98 % of control | dose: 200.0 mg/kg/injection, schedule: Q04DX002 (ip), vehicle: Klucel (hydroxypropylcellulose) (HPC) 98 % of control | dose: 400.0 mg/kg/injection, schedule: Q04DX002 (ip), vehicle: Klucel (hydroxypropylcellulose) (HPC) 106 % of control

CCN(CC)CC(=O)NCC(CC)(CCN1CCOCC1)c1cccc2ccccc12 (configuration not stated)
inactive: [1] 97 % of control | [2] 95 % of control

COC1OC2COC(c3ccccc3)OC2C(O)C1OC (configuration not stated)
inactive: dose: 12.5 mg/kg/injection, schedule: Q04DX002 (ip), vehicle: saline 100 % of control | dose: 25.0 mg/kg/injection, schedule: Q04DX002 (ip), vehicle: saline 100 % of control | dose: 50.0 mg/kg/injection, schedule: Q04DX002 (ip), vehicle: saline 116 % of control

O=C(O)c1c(Cl)c(Cl)c(Cl)c(Cl)c1C(=O)Nc1cccc(C(F)(F)F)c1
inactive: [7] 100 % of control | dose: 100.0 mg/kg/injection, schedule: Q04DX003 (ip), vehicle: Klucel (hydroxypropylcellulose) (HPC) 94 % of control | [8] 97 % of control | dose: 200.0 mg/kg/injection, schedule: Q04DX003 (ip), vehicle: Klucel (hydroxypropylcellulose) (HPC) 100 % of control | dose: 400.0 mg/kg/injection, schedule: Q04DX003 (ip), vehicle: Klucel (hydroxypropylcellulose) (HPC) 105 % of control

COc1ccc(N=NN(C)C(C)=O)cc1
inactive: dose: 50.0 mg/kg/injection, schedule: Q01DX009 (ip), vehicle: Klucel (hydroxypropylcellulose) (HPC) 102 % of control | dose: 75.0 mg/kg/injection, schedule: Q01DX001 (ip), vehicle: Klucel (hydroxypropylcellulose) (HPC) 101 % of control | [7] 103 % of control | dose: 150.0 mg/kg/injection, schedule: Q01DX001 (ip), vehicle: Klucel (hydroxypropylcellulose) (HPC) 93 % of control | [8] 100 % of control | dose: 300.0 mg/kg/injection, schedule: Q01DX001 (ip), vehicle: Klucel (hydroxypropylcellulose) (HPC) 96 % of control

CCOC(=O)c1ccc(NC(=O)/C=C/c2ccccc2)cc1
inactive: [7] 97 % of control | [8] 95 % of control | dose: 400.0 mg/kg/injection, schedule: Q01DX009 (ip), vehicle: Klucel (hydroxypropylcellulose) (HPC) 97 % of control

Nc1nc2c(ncn2C2OC(COC(=O)c3ccc(Cl)cc3)C(OC(=O)c3ccc(Cl)cc3)C2OC(=O)c2ccc(Cl)cc2)c(=O)[nH]1 (configuration not stated)
inactive: dose: 50.0 mg/kg/injection, schedule: Q01DX001 (ip), vehicle: carboxymethylcellulose (CMC) 95 % of control | [9] 97 % of control | [10] 91 % of control | [11] 97 % of control

CCCCCCCCCOCC(O)COc1ccccc1[N+](=O)[O-] (configuration not stated)
inactive: dose: 100.0 mg/kg/injection, schedule: Q04DX003 (ip), vehicle: saline sonified 113 % of control | dose: 200.0 mg/kg/injection, schedule: Q04DX003 (ip), vehicle: saline sonified 95 % of control | dose: 400.0 mg/kg/injection, schedule: Q04DX003 (ip), vehicle: saline sonified 98 % of control

Cc1ncc(C(N)=O)c(C)n1
inactive: [5] 95 % of control | [6] 101 % of control | dose: 400.0 mg/kg/injection, schedule: Q01DX001 (ip), vehicle: saline 101 % of control

CC(C)N1CNC(=O)C12CCN(CC1COc3ccccc3O1)CC2 (configuration not stated)
inactive: dose: 100.0 mg/kg/injection, schedule: Q04DX003 (ip), vehicle: saline with Tween-80 104 % of control | dose: 200.0 mg/kg/injection, schedule: Q04DX003 (ip), vehicle: saline with Tween-80 106 % of control

O=c1[nH]c(Cc2ccccc2)c(N=Nc2ccccc2)c(=O)[nH]1
inactive: dose: 25.0 mg/kg/injection, schedule: Q01DX001 (ip), vehicle: saline with Tween-80 93 % of control | dose: 50.0 mg/kg/injection, schedule: Q01DX001 (ip), vehicle: saline with Tween-80 93 % of control | dose: 100.0 mg/kg/injection, schedule: Q01DX001 (ip), vehicle: saline with Tween-80 93 % of control

CCC1C(=O)C=C(C)OC1=O (configuration not stated)
inactive: dose: 75.0 mg/kg/injection, schedule: Q01DX009 (ip), vehicle: Klucel (hydroxypropylcellulose) (HPC) 107 % of control | dose: 150.0 mg/kg/injection, schedule: Q01DX009 (ip), vehicle: Klucel (hydroxypropylcellulose) (HPC) 101 % of control | dose: 300.0 mg/kg/injection, schedule: Q01DX009 (ip), vehicle: Klucel (hydroxypropylcellulose) (HPC) 86 % of control

Cc1ccc(/C(=N\N=C(N)N)c2ccccc2)cc1
inactive: dose: 15.0 mg/kg/injection, schedule: Q01DX Z (ip), vehicle: saline 108 % of control | dose: 30.0 mg/kg/injection, schedule: Q01DX Z (ip), vehicle: saline 110 % of control | dose: 30.0 mg/kg/injection, schedule: Q01DX Z (oral), vehicle: other 105 % of control | dose: 60.0 mg/kg/injection, schedule: Q01DX Z (ip), vehicle: saline 109 % of control | dose: 60.0 mg/kg/injection, schedule: Q01DX Z (oral), vehicle: other 95 % of control

CCOC(=O)Cc1c(C)c2c(O)cc(O)cc2oc1=O
inactive: [9] 97 % of control | [10] 89 % of control | [11] 97 % of control

C=CCCC1(C(C)CC)C(=O)NC(=S)NC1=O (configuration not stated)
inactive: dose: 75.0 mg/kg/injection, schedule: Q01DX001 (ip), vehicle: saline 100 % of control | dose: 150.0 mg/kg/injection, schedule: Q01DX001 (ip), vehicle: saline 95 % of control | dose: 300.0 mg/kg/injection, schedule: Q01DX001 (ip), vehicle: saline 100 % of control
